According to patent US12162867B2, “Inhibitors of RNA helicase DHX9 and uses thereof” (ACCENT THERAPEUTICS, INC., priority 2022, dated 2024):

Tests used:
Type in all cases: cell-based
LS411N cells = assay: DHX9 cellular proliferation assay (CellTiter-Glo), LS411N (CRC-MSI); conditions: Homo sapiens, LS-411N, LS411N, CRC-MSI-H; performed at Pharmaron; read-out: LS411N (CRC-MSI-H) Antiproliferative IC50
NCI-H747 cells = assay: DHX9 cellular proliferation assay (CellTiter-Glo), NCI-H747 (CRC-MSS); conditions: Homo sapiens, NCI-H747, NCI-H747, CRC-MSS; performed at Pharmaron; read-out: H747 (CRC-MSS) Antiproliferative IC50
[1] = tested on: circBRIP1 in HCT116 cells; assay: DHX9 circBRIP1 cellular target engagement SYBR Green assay (qPCR); conditions: Homo sapiens, HCT-116, circBRIP1, HCT116 cells; SyBr assay (marked ^+); read-out: DHX9 Cellular Target Engagement EC50

Row | SMILES | IC50 (LS411N cells) [nM] | IC50 (NCI-H747 cells) [µM] | EC50 [1] [nM]
1 | Cc1cccnc1-n1cc(C(=O)Nc2cc(Cl)cc(NS(C)(=O)=O)c2)cc1C [Example 130] | 1160 | > 10 | 489
2 | CCc1cn2cc(C(=O)Nc3cc(Cl)cc(NS(C)(=O)=O)c3)ccc2n1 [Example 132] | > 10000 | > 10 | > 10000
3 | Cc1cccnc1-c1cc(C(=O)Nc2cc(Cl)cc(NS(C)(=O)=O)c2)cn1CC(F)F [Example 143, N-(3-chloro-5-(methylsulfonamido)phenyl)-1-(2,2-difluoroethyl)-5-(3-methylpyridin-2-yl)-1H-pyrrole-3-carboxamide] | 1090 | 8.54 | 516
4 | CS(=O)(=O)Nc1cc(Cl)cc(NC(=O)c2cc(-c3ccccn3)c(CO)s2)c1 [Example 163, N-(3-chloro-5-(methylsulfonamido)phenyl)-5-(hydroxymethyl)-4-(pyridin-2-yl)thiophene-2-carboxamide] | 609 | > 10 | 70
5 | Cn1cc(C(=O)Nc2cc(Cl)cc(NS(C)(=O)=O)c2)cc1-c1ncc(F)cn1 [Example 171, N-(3-chloro-5-(methylsulfonamido)phenyl)-5-(5-fluoropyrimidin-2-yl)-1-methyl-1H-pyrrole-3-carboxamide] | 372 | > 10 | 95.7
6 | CCOc1cnc(-c2cc(C(=O)Nc3cc(Cl)cc(NS(C)(=O)=O)c3)cn2C)nc1 [Example 172] | 237 | 6.89 | 135
7 | Cn1cc(C(=O)Nc2cc(Cl)cc(NS(C)(=O)=O)c2)cc1-c1ncccc1OCc1cncc(F)c1 [Example 174, N-(3-chloro-5-(methylsulfonamido)phenyl)-5-(3-((5-fluoropyridin-3-yl)methoxy)pyridin-2-yl)-1-methyl-1H-pyrrole-3-carboxamide] | 33.3 | > 10 | 7
8 | CS(=O)(=O)Nc1cc(Cl)cc(NC(=O)c2cc(-c3ccccn3)c(C3CC3)s2)c1 [Example 177, N-(3-chloro-5-(methylsulfonamido)phenyl)-5-cyclopropyl-4-(pyridin-2-yl)thiophene-2-carboxamide] | 251 | > 10 | 84.8
9 | CS(=O)(=O)Nc1cc(Cl)cc(NC(=O)c2cc(-c3ncccc3Oc3ncccn3)cs2)c1 [Example 178, N-(3-chloro-5-(methylsulfonamido)phenyl)-4-(3-(pyrimidin-2-yloxy)pyridin-2-yl)thiophene-2-carboxamide] | 81.1 | > 10 | 101
10 | CS(=O)(=O)Nc1cc(Cl)cc(NC(=O)c2cc(-c3ncccc3OCc3cccnc3)n(CC(F)(F)F)c2)c1 [Example 185] | 139 | 8.38 | 73.3
11 | CS(=O)(=O)Nc1cc(Cl)cc(NC(=O)c2cnn(-c3ncccc3OCc3cncc(F)c3)c2)c1 [Example 186] | 2440 | > 10 | 161
12 | CS(=O)(=O)Nc1cc(Cl)cc(NC(=O)c2cnn(-c3ccc(N4CC5CCC(C4)O5)cn3)c2)c1 [Example 191] | > 10000 | > 10 | 432
13 | CS(=O)(=O)Nc1cc(Cl)cc(NC(=O)c2cnn(-c3ncc(F)cc3OCc3cccc(F)c3)c2)c1 [Example 202] | 111 | 8.56 | 103
14 | Cc1ccc(OCc2cccc(F)c2)c(-n2cc(C(=O)Nc3cc(Cl)cc(NS(C)(=O)=O)c3)cn2)n1 [Example 204] | 54.8 | > 10 | 53.9
15 | CCOc1cnc(-n2cc(C(=O)Nc3cc(Cl)cc(NS(C)(=O)=O)c3)cc2C)nc1 [Example 208] | 218 | > 10 | 125
16 | CS(=O)(=O)Nc1cc(Cl)cc(NC(=O)c2cnn(-c3ccccc3OCc3cccc(F)c3)c2)c1 [Example 210] | 111 | > 10 | 77.2
17 | CNC(=O)c1sc(C(=O)Nc2cc(Cl)cc(NS(C)(=O)=O)c2)cc1-c1ncccc1OCc1ccccc1 [Example 212] | 202 | > 10 | 32.6
18 | CN(C)C(=O)c1sc(C(=O)Nc2cc(Cl)cc(NS(C)(=O)=O)c2)cc1-c1ncccc1OCc1ccccc1 [Example 213] | 173 | > 10 | 74.6
19 | CS(=O)(=O)Nc1cc(F)cc(NC(=O)c2cc(-c3ncccc3OCc3ccccc3)cs2)c1 [Example 214] | 203 | 7.15 | 106
20 | CS(=O)(=O)Nc1cc(Cl)cc(NC(=O)c2cc(-c3ncccc3OCc3cnco3)cs2)c1 [Example 215] | 118 | > 10 | 23.7
21 | CS(=O)(=O)Nc1cc(Cl)cc(NC(=O)c2cc(-c3ncccc3OCc3ccccc3)c(CO)s2)c1 [Example 216] | 38.5 | > 10 | 12.7
22 | CS(=O)(=O)Nc1cc(Cl)cc(NC(=O)c2cc(-c3ncccc3OCc3cccnc3)cs2)c1 [Example 217] | 53.3 | > 10 | 13.6
23 | CCS(=O)(=O)Nc1cc(Cl)cc(NC(=O)c2cc(-c3ncccc3C)cs2)c1 [Example 224] | 122 | > 10 | 55.8
24 | CS(=O)(=O)Nc1cc(Cl)cc(NC(=O)c2cc(-c3ncc(F)cc3OCc3cncc(F)c3)cs2)c1 [Example 225] | 43.9 | > 10 | 19.9

Row | SMILES | IC50 (LS411N cells) [nM] | IC50 (NCI-H747 cells) [µM] | EC50 [1] [nM]
25 | Cc1sc(C(=O)Nc2cc(Cl)cc(NS(C)(=O)=O)c2)cc1-c1ncccc1O [Example 227] | 879 | > 10 | 40.3
26 | CS(=O)(=O)Nc1cc(Cl)cc(NC(=O)c2cc(-c3ncccc3COc3cc(F)cc(F)c3)cs2)c1 [Example 228] | 117 | > 10 | 48.3
27 | CC(C)c1sc(C(=O)Nc2cc(Cl)cc(NS(C)(=O)=O)c2)cc1-c1ccccn1 [Example 233] | 356 | > 10 | 460
28 | CS(=O)(=O)Nc1cc(Cl)cc(NC(=O)c2cc(-c3ncccc3Nc3ncccn3)cs2)c1 [Example 237] | 249 | 3.78 | 1910
29 | CS(=O)(=O)Nc1cc(Cl)cc(NC(=O)c2cnn(-c3ncc(F)cc3CCc3cccc(F)c3)c2)c1 [Example 251] | 432 | > 10 | > 10000
30 | Cc1cccc(OCc2cccc(F)c2)c1-n1cc(C(=O)Nc2cc(Cl)cc(NS(C)(=O)=O)c2)cn1 [Example 255] | 74.3 | > 10 | 378
31 | Cc1cc(C(=O)Nc2cc(Cl)cc(NS(C)(=O)=O)c2)cn1-c1ccc(N2CC3(COC3)C2)cn1 [Example 276] | 61.7 | > 10 | 64.2
32 | Cn1cc(C(=O)Nc2cc(Cl)cc(NS(C)(=O)=O)c2)cc1-c1ccc(N2CC3(COC3)C2)cn1 [Example 277] | 66.7 | 4.7 | 47.6
33 | Cn1cc(C(=O)Nc2cc(Cl)cc(NS(C)(=O)=O)c2)cc1-c1ncccc1OCc1nccs1 [Example 279] | 81.1 | > 10 | 53.3
34 | Cc1cc(C(=O)Nc2cc(Cl)cc(NS(C)(=O)=O)c2)cn1-c1ncccc1OCc1nccs1 [Example 280] | 116 | > 10 | 74.2
35 | Cc1cc(C(=O)Nc2cc(Cl)cc(NS(C)(=O)=O)c2)cn1-c1ncccc1O [Example 281] | 367 | 7.34 | 483
36 | Cc1cc(C(=O)Nc2cc(Cl)cc(NS(C)(=O)=O)c2)cn1-c1ccc(N2CCN(C(=O)C(C)C)CC2)cn1 [Example 283] | 92.3 | > 10 | 131
37 | Cc1cc(C(=O)Nc2cc(Cl)cc(NS(C)(=O)=O)c2)cn1-c1ccc(N2CCN(C(=O)N(C)C)CC2)cn1 [Example 284] | 161 | > 10 | 103
38 | CS(=O)(=O)Nc1cc(Cl)cc(NC(=O)c2cc(-c3ccc(F)cn3)n(CC(F)F)c2)c1 [Example 286] | 131 | > 10 | 2630
39 | CC(O)c1cc(C(=O)Nc2cc(Cl)cc(NS(C)(=O)=O)c2)cn1-c1ccccn1 (stereo not drawn) [Example 287] | 165 | > 10 | 232
40 | COc1cc2cc(C(=O)Nc3cc(Cl)cc(NS(C)(=O)=O)c3)sc2cc1OC [Example 291] | 352 | > 10 | 803
41 | CCOc1cnc(-c2cc(C(=O)Nc3cc(Cl)cc(NS(C)(=O)=O)c3)sc2C)nc1 [Example 335] | 52.6 | > 10 | 51.1
42 | Cc1sc(C(=O)Nc2cc(Cl)cc(NS(C)(=O)=O)c2)cc1-c1ncc(F)cn1 [Example 336] | 146 | > 10 | 84.6
43 | CCOc1ccc(-c2csc(C(=O)Nc3cc(Cl)cc(NS(C)(=O)=O)c3)c2)nc1 [Example 339] | 341 | 5.69 | 91.8
44 | COc1cnc(-c2csc(C(=O)Nc3cc(Cl)cc(NS(C)(=O)=O)c3)c2)nc1 [Example 340] | 118 | > 10 | 106
45 | COc1cnc(-c2cc(C(=O)Nc3cc(Cl)cc(NS(C)(=O)=O)c3)sc2C)nc1 [Example 341] | 122 | > 10 | 34.6
46 | CCOc1cnc(-c2csc(C(=O)Nc3cc(Cl)cc(NS(C)(=O)=O)c3)c2)nc1 [Example 342] | 133 | > 10 | 47.8
47 | Cc1sc(C(=O)Nc2cc(Cl)cc(NS(C)(=O)=O)c2)cc1-c1ncc(OC(F)F)cn1 [Example 345] | 362 | 8.45 | 108
48 | Cc1cc(C(=O)Nc2cc(Cl)cc(NS(C)(=O)=O)c2)cn1-c1ccc(Cl)cn1 [Example 389] | 113 | 8.04 | 110
